# According to US6936607B2, “2,4,6-Triaminopyrimidines for the treatment of depression and/or anxiety” (H. Lunobeck A/S, priority 2002, dated 2005):
# pKi: −log10 of the molar value.
# Biological target: T1, human GalR3 receptor (Homo sapiens, UniProt O60755)
# T1 construct: expressed in transfected cells; host or cells: mouse fibroblast LM(tk-) cells, stably transfected; membranes
# T1 sequence (O60755 1-368): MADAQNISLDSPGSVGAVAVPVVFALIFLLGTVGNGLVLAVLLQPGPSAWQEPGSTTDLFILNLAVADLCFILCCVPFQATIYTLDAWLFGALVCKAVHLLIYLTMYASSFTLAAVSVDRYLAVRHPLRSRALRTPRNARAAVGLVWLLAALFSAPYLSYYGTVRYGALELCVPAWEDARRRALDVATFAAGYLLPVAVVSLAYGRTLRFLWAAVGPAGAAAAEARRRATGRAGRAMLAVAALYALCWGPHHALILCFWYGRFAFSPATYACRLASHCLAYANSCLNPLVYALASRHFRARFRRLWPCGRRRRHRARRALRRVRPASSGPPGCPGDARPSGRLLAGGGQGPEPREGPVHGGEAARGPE
# Experiment: Radioligand binding assay at cloned human GalR3 receptor
# Settings: Binding Data; membranes from LM(tk-) cells stably transfected with the human GalR3 receptor
# Protocol: LM(tk-) cells were stably transfected with the human GalR3 receptor. cDNAs for the human and rat GalR3 receptors were transfected with a G-418 resistant gene into the mouse fibroblast LM(tk-) cell line by a calcium phosphate transfection method (Cullen, 1987). Membranes were harvested from stably transfected LM(tk-) cells. Adherent cells were washed twice in ice-cold phosphate buffered saline (138 mM NaCl, 8.1 mM Na2HPO4, 2.5 mM KCl, 1.2 mM KH2PO4, 0.9 mM CaCl2, 0.5 mM MgCl2, pH 7.4) and lysed by sonication in ice-cold sonication buffer (20 mM Tris-HCl, 5 mM EDTA, pH 7.7). Large particles and debris were cleared by low speed centrifugation (200×g, 5 min, 4° C.). Membranes were collected from the supernatant fraction by centrifugation (32,000×g, 18 min, 4° C.), washed with ice-cold hypotonic buffer, and collected again by centrifugation (32,000×g, 18 min, 4° C.). The final membrane pellet was resuspended by sonication into a small volume of ice-cold binding buffer (˜1 ml for every 5 plates: 10 mM NaCl, 20 mM HEPES, 0.22 mM KH2PO4, 1.26 mM CaCl2, 0.81 mM MgSO4, pH 7.4). Protein concentration was measured by the Bradford method (Bradford, 1976) using Bio-Rad Reagent, with bovine serum albumin as a standard. Membranes were held on ice for up to one hour and used fresh, or flash frozen and stored in liquid nitrogen. Membranes were prepared similarly from CHO cells. The methods to obtain the cDNA of the receptors, express said receptors in heterologous systems, and carry out assays to determine binding affinity are described as follows. Binding assays were performed according to the following published method: human GALR3 (PCT International Publication No. WO 02/060392).
row,pKi,Structure (SMILES)
1,6.51,"CCC(C)Nc1cc(Nc2cc(N(C)C)nc(N3C[C@@H](C)O[C@@H](C)C3)n2)ccc1C (stereo partly drawn) [Example 50, N^4-[3-(SEC-BUTYLAMINO)-4-METHYLPHENYL]-2-[CIS-2,6-DIMETHYL MORPHOLINYL]-N^6,N^6-DIMETHYL-4,6-PYRIMIDINEDIAMINE]"
2,6.93,"Cc1ccc(Nc2cc(N3CCN(c4ncccn4)CC3)nc(N3C[C@@H](C)O[C@@H](C)C3)n2)cc1 [Example 52, 2-(CIS-2,6-DIMETHYLMORPHOLINYL)-N-(4-METHYLPHENYL)-6-[4-(2-PYRIMIDINYL)-1-PIPERAZINYL]-4-PYRIMIDINAMINE]"
3,7.47,"CN(C)c1cc(Nc2ccc3c(c2)CCC3)nc(N2CCN(c3cccc(Cl)c3)CC2)n1 [Example 2, 2-[4-(3-CHLOROPHENYL)-1-PIPERAZINYL]-N^4-(2,3-DIHYDRO-1H-INDEN-5-YL)-N^6,N^6-DIMETHYL-4,6-PYRIMIDINEDIAMINE]"
4,7.57,"CN(C)c1cc(Nc2ccc(Cl)c(Cl)c2)nc(N2CCN(c3ccccc3F)CC2)n1 [Example 29, N^4-(3,4-DICHLOROPHENYL)-2-[4-(2-FLUOROPHENYL)-1-PIPERAZINYL]-N^6,N^6-DIMETHYL-4,6-PYRIMIDINEDIAMINE]"
5,6.38,"CN(C)c1cccc(Nc2cc(N(C)C)nc(N3CCN(c4ccccn4)CC3)n2)c1 [Example 28, N^4-[3-(DIMETHYLAMINO)PHENYL]-N^6,N^6-DIMETHYL-2-[4-(2-PYRIDINYL)-1-PIPERAZINYL]-4,6-PYRIMIDINEDIAMINE]"
6,7.06,"COc1cccc(Nc2cc(N(C)C)nc(N3CCN(c4ccc(Cl)cc4)CC3)n2)c1 [Example 15, 2-[4-(4-CHLOROPHENYL)-1-PIPERAZINYL]-N^4-(3-METHOXYPHENYL)-N^6,N^6-DIMETHYL-4,6-PYRIMIDINEDIAMINE]"
7,7.22,"Clc1ccc(Nc2cc(N3CCN(c4ccccn4)CC3)nc(N3CCN(c4ccccn4)CC3)n2)cc1Cl [Example 43, N-(3,4-DICHLOROPHENYL)-2,6-BIS[4-(2-PYRIDINYL)-1-PIPERAZINYL]-4-PYRIMIDINAMINE]"
8,7.24,"Cc1ccc(Nc2cc(N(C)C)nc(N3CCN(c4ccccc4Cl)CC3)n2)cc1C [Example 17, 2-[4-(2-CHLOROPHENYL)-1-PIPERAZINYL]-N^4-(3,4-DIMETHYLPHENYL)-N^6,N^6-DIMETHYL-4,6-PYRIMIDINEDIAMINE]"
9,6.45,"Cc1ccc(Nc2cc(N(C)C)nc(N3CCN(c4ccc(Cl)cc4)CC3)n2)cc1 [Example 7, 2-[4-(4-CHLOROPHENYL)-1-PIPERAZINYL]-N^4,N^4-DIMETHYL-N^6-(4-METHYLPHENYL)-4,6-PYRIMIDINEDIAMINE]"
10,7.47,"CN(C)c1cc(Nc2ccc(Cl)c(Cl)c2)nc(N2CCN(c3cccc(Cl)c3)CC2)n1 [Example 16, 2-[4-(3-CHLOROPHENYL)-1-PIPERAZINYL]-N^4-(3,4-DICHLOROPHENYL)-N^6,N^6-DIMETHYL-4,6-PYRIMIDINEDIAMINE]"
11,6.94,"Cc1ccc(Nc2cc(N(C)C)nc(NCc3ccccc3)n2)cc1 [Example 39, N^2-BENZYL-N^4,N^4-DIMETHYL-N^6-(4-METHYLPHENYL)-2,4,6-PYRIMIDINE TRIAMINE]"
12,6.50,"CN(C)c1cc(Nc2ccc(SC(F)(F)F)c(Cl)c2)nc(N2CCN(c3cccc(Cl)c3)CC2)n1 [Example 20, 2-[4-(3-CHLOROPHENYL)-1-PIPERAZINYL]-N^4-{3-CHLORO-4-[(TRIFLUOROMETHYL) SULFANYL]PHENYL}-N^6,N^6-DIMETHYL-4,6-PYRIMIDINEDIAMINE]"
13,6.93,"Cc1ccc(Nc2cc(N(C)C)nc(N3CCN(c4ccccc4F)CC3)n2)cc1 [Example 5, 2-[4-(2-FLUOROPHENYL)-1-PIPERAZINYL]-N^4,N^4-DIMETHYL-N^6-(4-METHYLPHENYL)-4,6-PYRIMIDINEDIAMINE]"
14,7.64,"CN(C)c1cc(Nc2cccc(OCc3ccccc3)c2)nc(N2CCCCC2)n1 [Example 36, N^4-[3-(BENZYLOXY)PHENYL]-N^6,N^6-DIMETHYL-2-(1-PIPERIDINYL)-4,6-PYRIMIDINEDIAMINE]"
15,6.74,"CN(C)c1cc(Nc2ccc(SC(F)(F)F)c(Cl)c2)nc(N2CCN(c3ccccc3Cl)CC2)n1 [Example 22, 2-[4-(2-CHLOROPHENYL)-1-PIPERAZINYL]-N^4-{3-CHLORO-4-[(TRIFLUOROMETHYL) SULFANYL]PHENYL}-N^6,N^6-DIMETHYL-4,6-PYRIMIDINE DIAMINE]"
16,6.03,"CCNc1cccc(Nc2cc(N(C)C)nc(N3CCN(Cc4ccccc4)CC3)n2)c1 [Example 33, 2-(4-BENZYL-1-PIPERAZINYL)-N^4-[3-(ETHYLAMINO)PHENYL]N^6,N^6-DIMETHYL-4,6-PYRIMIDINEDIAMINE]"
17,6.99,"Cc1ccc(Nc2cc(N(C)C)nc(N3C[C@@H](C)O[C@@H](C)C3)n2)cc1N(C)Cc1ccccc1 [Example 49, N^4-{3-[BENZYL(METHYL)AMINO]-4-METHYLPHENYL}-2-[CIS-2,6-DIMETHYIMORPHOLINYL]-N^6,N^6-DIMETHYL-4,6-PYRIMIDINEDIAMINE]"
18,6.86,"CCNc1cc(Nc2cc(N(C)C)nc(N3CCN(Cc4ccccc4)CC3)n2)ccc1C [Example 40, 2-(4-BENZYL-1-PIPERAZINYL)-N^4-[3-(ETHYLAMINO)-4-METHYLPHENYL]-N^6,N^6-DIMETHYL-4,6-PYRIMIDINEDIAMINE]"
19,7.80,"CN(C)c1cc(Nc2cccc(OCc3ccccc3)c2)nc(N2CCN(c3ccccc3Cl)CC2)n1 [Example 25, N^4-[3-(BENZYLOXY)PHENYL]-2-[4-(2-CHLOROPHENYL)-1-PIPERAZINYL]-N^6,N^6-DIMETHYL-4,6-PYRIMIDINEDIAMINE]"
20,7.52,"C[C@H]1CN(c2nc(Nc3cccc(OCc4ccccc4)c3)cc(N(C)C)n2)C[C@H](C)O1 (racemic) [Example 48, (±)-N^4-[3-(BENZYLOXY)PHENYL]-2-(TRANS-2,6-DIMETHYL MORPHOLINYL)-N^6,N^6-DIMETHYL-4,6-PYRIMIDINEDIAMINE]"
21,7.09,"C[C@@H]1CN(c2nc(Nc3ccc(Cl)c(Cl)c3)cc(N(C)C)n2)C[C@H](C)O1 [Example 51, N^4-(3,4-DICHLOROPHENYL)-2-(CIS-2,6-DIMETHYLMORPHOLINYL)-N^6,N^6-DIMETHYL-4,6-PYRIMIDINEDIAMINE]"
22,7.27,"CN(C)c1cc(Nc2ccc3c(c2)CCC3)nc(N2CCN(c3ccccc3Cl)CC2)n1 [Example 4, 2-[4-(2-CHLOROPHENYL)-1-PIPERAZINYL]-N^4-(2,3-DIHYDRO-1H-INDEN-5-YL)-N^6,N^6-DIMETHYL-4,6-PYRIMIDINEDIAMINE]"
23,6.89,"Cc1ccc(Nc2cc(N(C)C)nc(N3CCN(c4ccc(Cl)cc4)CC3)n2)cc1C [Example 23, 2-[4-(4-CHLOROPHENYL)-1-PIPERAZINYL]-N^4-(3,4-DIMETHYLPHENYL)-N^6,N^6-DIMETHYL-4,6-PYRIMIDINEDIAMINE]"
24,6.80,"CN(C)c1cc(Nc2ccc(SC(F)(F)F)c(Cl)c2)nc(N2CCN(c3ccccc3F)CC2)n1 [Example 14, N^4-{3-CHLORO-4-[(TRIFLUOROMETHYL)SULFANYL]PHENYL}-2-[4-(2-FLUOROPHENYL)-1-PIPERAZINYL]-N^6,N^6-DIMETHYL-4,6-PYRIMIDINEDIAMINE]"
25,7.21,"COc1cccc(Nc2cc(N(C)C)nc(N3CCN(c4ccccc4Cl)CC3)n2)c1 [Example 11, 2-[4-(2-CHLOROPHENYL)-1-PIPERAZINYL]-N^4-(3-METHOXYPHENYL)-N^6,N^6-DIMETHYL-4,6-PYRIMIDINEDIAMINE]"
26,7.34,"CN(C)c1cc(Nc2ccc(C3CCCCC3)cc2)nc(N2CCN(c3ccccc3F)CC2)n1 [Example 18, N^4-(4-CYCLOHEXYLPHENYL)-2-[4-(2-FLUOROPHENYL)-1-PIPERAZINYL]-N^6,N^6-DIMETHYL-4,6-PYRIMIDINEDIAMINE]"
27,6.61,"Cc1ccc(Nc2cc(N(C)C)nc(N3CCN(c4ccccn4)CC3)n2)cc1NC(C)C [Example 26, N^4-[3-(ISOPROPYLAMINO)-4-METHYLPHENYL]-N^6,N^6-DIMETHYL-2-[4-(2-PYRIDINYL)-1-PIPERAZINYL]-4,6-PYRIMIDINEDIAMINE]"
28,6.86,"CN(C)c1cc(Nc2ccc(SC(F)(F)F)c(Cl)c2)nc(N2CCN(c3ccc(Cl)cc3)CC2)n1 [Example 30, 2-[4-(4-CHLOROPHENYL)-1-PIPERAZINYL]-N^4-{3-CHLORO-4-[TRIFLUOROMETHYL) SULFANYL]PHENYL}-N^6,N^6-DIMETHYL-4,6-PYRIMIDINEDIAMINE]"
29,6.97,"COc1cccc(Nc2cc(N(C)C)nc(N3CCN(c4cccc(Cl)c4)CC3)n2)c1 [Example 8, 2-[4-(3-CHLOROPHENYL)-1-PIPERAZINYL]-N^4-(3-METHOXYPHENYL)-N^6,N^6-DIMETHYL-4,6-PYRIMIDINEDIAMINE]"
